Experiment: not given
Conditions: in water at 25° C.; cited from earlier work

| Structure (SMILES) | Ksp [mol/L] |
| --- | --- |
| O=C([O-])CC(O)(CC(=O)[O-])C(=O)[O-].[Ag+].[Ag+].[Ag+] [Silver citrate] | 2.5e-18 |
| O=C([O-])c1ccccc1.[Ag+] [Silver benzoate] | 2.5e-05 |
| [Br][Ag] [Silver bromide] | 5.3e-13 |
| [Cl][Ag] [Silver chloride] | 1.8e-10 |
| O=S(=O)([O-])[O-].[Ag+].[Ag+] [Silver sulfate] | 1.4e-05 |

Experiment: Silver ion solubility derived from solubility product (Ksp) in water at 25° C.
Conditions: calculated as (Ksp·x)^(1/(x+1))

| Structure (SMILES) | Silver Ion Solubility [Ag+] [µM] |
| --- | --- |
| [Cl][Ag] [Silver chloride] | 13 |

From patent US10370622B2, “Soap bar having enhanced antibacterial activity” (Conopco, Inc., priority 2013, dated 2019)
